Experimental data published in US20150315188A1, “COMPOUNDS AND METHODS FOR TREATMENT OF HYPERTENSION” (MEDIVATION TECHNOLOGIES, INC., priority 2012, published 2015).

Tests used:
[1] = biological target: T1, Human adrenergic α2A receptor (Homo sapiens, UniProt P08913); assay: β-Arrestin GPCR functional assay, adrenergic α2A (Protocol B); format: cell-based; settings: for IC50: β-arrestin, antagonist vs nor-epinephrine EC80
T1 sequence (P08913 1-465): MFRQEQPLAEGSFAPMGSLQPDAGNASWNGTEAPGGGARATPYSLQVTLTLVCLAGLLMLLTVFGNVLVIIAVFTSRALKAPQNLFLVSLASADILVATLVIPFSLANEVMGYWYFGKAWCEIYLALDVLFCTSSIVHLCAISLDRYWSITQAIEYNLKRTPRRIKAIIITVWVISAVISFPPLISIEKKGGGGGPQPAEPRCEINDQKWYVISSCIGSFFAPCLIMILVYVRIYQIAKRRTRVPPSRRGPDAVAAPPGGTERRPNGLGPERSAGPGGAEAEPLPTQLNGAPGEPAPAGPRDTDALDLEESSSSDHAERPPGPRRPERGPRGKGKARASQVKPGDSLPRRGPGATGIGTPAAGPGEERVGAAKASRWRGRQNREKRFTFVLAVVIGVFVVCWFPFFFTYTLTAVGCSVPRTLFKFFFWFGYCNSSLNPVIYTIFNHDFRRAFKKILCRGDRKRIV
Description: To evaluate the activity of compounds in β-Arrestin GPCR functional assays, recombinant CHO cell line (DiscoveRX), over expressed with human adrenergic α2A receptor were used. The experiment was done with kit of DiscoveRX as per recommended protocol of the supplier. Cells were harvested from culture flask using cell dissociation solution (CDS) and plated at a density of 12,000 cells/well in CP reagent (supplied with the kit) in a half area 96-well white polystyrene plate. After 24 h incubation at 37° C., compounds at various concentrations in 1% (final) DMSO were charged to the cells for 30 min at 37° C. Active nor-epinephrine (-NE) at its EC80 concentrations (270 nM) were then added to the cells and incubated for another 90 min at 37° C. Detection mix was prepared by mixing of Path Hunter cell assay buffer, Emerald II solution and Galactone star solution in a ratio of 19:5:1 and incubated with the cells for 60 min at RT in the dark. The reading was taken in Envision at luminescence mode. Biochemical assay results are presented as the percent Inhibition in Table B2a, or IC50 values in Table B2b.

[2] = biological target: T2, Human adrenergic α2B receptor (Homo sapiens, UniProt P18089); assay: β-Arrestin GPCR functional assay, adrenergic α2B (Protocol B); format: cell-based; settings: for IC50: β-arrestin, antagonist vs nor-epinephrine EC80, read-out: IC50 Adrenergic α2B; for inhibition at 0.01 µM: 10 nM compound
T2 sequence (P18089 1-450): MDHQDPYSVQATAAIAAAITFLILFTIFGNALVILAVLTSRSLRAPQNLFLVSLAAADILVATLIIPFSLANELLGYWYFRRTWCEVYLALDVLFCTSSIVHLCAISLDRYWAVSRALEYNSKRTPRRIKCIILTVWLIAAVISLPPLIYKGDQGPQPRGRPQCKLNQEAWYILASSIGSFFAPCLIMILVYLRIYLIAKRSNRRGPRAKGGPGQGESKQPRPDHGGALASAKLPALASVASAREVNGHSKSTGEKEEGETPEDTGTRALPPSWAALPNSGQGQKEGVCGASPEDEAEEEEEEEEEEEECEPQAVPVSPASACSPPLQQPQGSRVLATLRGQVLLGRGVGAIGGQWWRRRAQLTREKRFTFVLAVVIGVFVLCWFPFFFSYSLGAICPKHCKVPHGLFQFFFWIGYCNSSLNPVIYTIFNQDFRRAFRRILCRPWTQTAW
How it was run: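 CHO cells overexpressing human α2B (PathHunter β-arrestin), 12,000 per well, 24 h at 37° C; compounds in 1% DMSO 30 min, then 50 nM norepinephrine (EC80) 90 min at 37° C.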

[3] = biological target: T3, Human adrenergic α1B receptor (Homo sapiens, UniProt P35368); assay: Radioligand binding, adrenergic α1B (Protocol Group B); set-up: purchased Milipore (Millipore); settings: for inhibition at 0.1 µM / Percentage inhibition of ligand binding, Adrenergic α1B (0.1 μM): 0.1 μM compound; for inhibition at 0.1 µM / inhibition at 0.3 µM / Ki / Percentage inhibition of ligand binding, Adrenergic α1B (0.1 μM) / Percentage inhibition of ligand binding, Adrenergic α1B (0.3 μM): Protocol Group B; for inhibition at 0.1 µM: read-out: Percentage inhibition of ligand binding, Adrenergic α1B (0.1 μM); for inhibition at 0.3 µM / Percentage inhibition of ligand binding, Adrenergic α1B (0.3 μM): 0.3 μM compound; for inhibition at 0.3 µM: read-out: Percentage inhibition of ligand binding, Adrenergic α1B (0.3 μM); for Ki: estimated Ki
T3 sequence (P35368 1-520): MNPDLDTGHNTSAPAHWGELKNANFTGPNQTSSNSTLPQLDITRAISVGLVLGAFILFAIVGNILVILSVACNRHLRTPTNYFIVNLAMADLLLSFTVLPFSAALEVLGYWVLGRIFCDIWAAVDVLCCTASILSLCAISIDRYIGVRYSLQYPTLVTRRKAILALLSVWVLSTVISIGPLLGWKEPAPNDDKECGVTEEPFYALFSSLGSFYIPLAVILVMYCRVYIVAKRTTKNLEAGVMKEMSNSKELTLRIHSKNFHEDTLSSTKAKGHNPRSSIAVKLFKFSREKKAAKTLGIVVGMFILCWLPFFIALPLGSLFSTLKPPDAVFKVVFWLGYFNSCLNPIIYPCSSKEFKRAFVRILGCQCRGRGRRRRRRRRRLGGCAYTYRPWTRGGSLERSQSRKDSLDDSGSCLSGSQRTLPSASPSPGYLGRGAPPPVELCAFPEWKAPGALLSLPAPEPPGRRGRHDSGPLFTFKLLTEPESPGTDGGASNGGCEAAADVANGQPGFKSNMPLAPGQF
How it was run: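 Recombinant human α1B membranes incubated with test compound and 0.3 nM [3H]prazosin, 60 min at 25 °C, in 50 mM Tris-HCl pH 7.4, 10 mM MgCl2, 1 mM EDTA; nonspecific binding with 10 μM prazosin. Filter-bound radioactivity counted; values are % inhibition of specific binding or estimated Ki.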

[4] = nor-epinephrine at EC80 (50 nM), read-out: Percentage inhibition, Adrenergic α2B

Structure (SMILES)	IC50 [1]	IC50 [2]	inhibition at 0.1 µM [3]	inhibition at 0.3 µM [3]	Ki [3]	Percentage inhibition of ligand binding, Adrenergic α1B (0.1 μM) [3]	Percentage inhibition of ligand binding, Adrenergic α1B (0.3 μM) [3]	other results
Cc1cc(F)c2c(c1)c1c(n2CC(O)c2ccncc2)CCN2CCCC12 (single isomer, unassigned) [137a]	5100 nM	41.3 nM	58%	85%	15 nM	–	–	–
CCOC(Cn1c2c(c3cc(C)ccc31)CN(C)CC2)c1ccncc1 (single isomer, unassigned) [43b]	7340 nM	91 nM	–	–	278 nM	14%	30%	–
Cc1ccc2c(c1)c1c(n2CC(O)c2ccncc2F)CCN2CCCC12 (single isomer, unassigned) [14a]	–	124 nM	70%	87%	18.2 nM	–	–	Percentage inhibition, Adrenergic α2A ([1]; 0.1 μM compound, nor-epinephrine at EC80 (270 nM)): −1%; Percentage inhibition, Adrenergic α2A ([1]; 0.3 μM compound, nor-epinephrine at EC80 (270 nM)): −2%; inhibition at 0.01 µM [2, 4]: 13%; Percentage inhibition, Adrenergic α2B ([2]; 30 nM compound, nor-epinephrine at EC80 (50 nM)): 9%; Percentage inhibition, Adrenergic α2B ([2]; 0.1 μM compound, nor-epinephrine at EC80 (50 nM)): 41%
Cc1cc(C)c2c(c1)c1c(n2CC(C)(O)c2cccnc2)CCN2CCCC12 (single isomer, unassigned) [44a]	5180 nM	178 nM	–	71%	63.7 nM	40%	–	–
Cc1ccc2c(c1)c1c(n2C[C@@H](OC2CCCC2)c2ccncc2)CCN2CCC[C@H]12 [compound 82, (11cR)-7-[(25)-2-(cyclopentoxy)-2-(4-pyridyl)ethyl]-10-methyl-1,2,3,5,6,11c-hexahydroindolizino[7,8-b]indole]	675 nM	25.4 nM	56%	81%	32.7 nM	–	–	–
CCCOC(Cn1c2c(c3cc(C)ccc31)CN(C)CC2)c1ccncc1 (single isomer, unassigned) [42a]	3310 nM	181 nM	44%	–	54 nM	–	70%	–
Cc1cc(F)cc2c3c(n(CC(C)(O)c4cccnc4)c12)CCN1CCCC31 (single isomer, unassigned) [75a]	2080 nM	17 nM	–	–	–	−1%	12%	–
Cc1ccc2c(c1)c1c(n2CC(C)(O)c2ccc(F)nc2)CCN2CCCC12 (single isomer, unassigned) [6a]	1790 nM	24 nM	–	–	25 nM	–	–	–
CC(O)(Cn1c2c(c3cc(Cl)cc(F)c31)C1CCCN1CC2)c1ccncc1 (single isomer, unassigned) [52b]	992 nM	49 nM	–	–	39.8 nM	35%	73%	–
Cc1ccc2c(c1)c1c(n2CC(O)c2ccncc2)CCN2CCCC12 (single isomer, unassigned) [Compound No. 178d]	–	–	94%	–	–	99%	–	–

The next lines start with results.

IC50 [1]	IC50 [2]	inhibition at 0.1 µM [3]	inhibition at 0.3 µM [3]	Ki [3]	Percentage inhibition of ligand binding, Adrenergic α1B (0.1 μM) [3]	Percentage inhibition of ligand binding, Adrenergic α1B (0.3 μM) [3]	Structure (SMILES)	other results
909 nM	10 nM	–	–	14 nM	69%	85%	Cc1cc(C)c2c(c1)c1c(n2CC(C)(O)c2cccnc2)CCN2CCCC12 (single isomer, unassigned) [44b]	–
896 nM	10.6 nM	31%	70%	14.7 nM	–	–	Cc1cc(F)cc2c3c(n(CC(O)c4ccncc4)c12)CCN1CCCC31 (single isomer, unassigned) [136a]	–
1250 nM	16 nM	–	89%	14.6 nM	72%	–	Cc1cc(F)c2c(c1)c1c(n2CC(C)(O)c2ccncc2)CCN2CCCC12 (single isomer, unassigned) [81a]	–
2780 nM	13 nM	45%	63%	65.8 nM	–	–	OC(Cn1c2c(c3cc(F)ccc31)C1CCCN1CC2)c1ccncc1 (single isomer, unassigned) [18b]	inhibition at 0.1 µM ([1]; 0.1 μM compound, nor-epinephrine at EC80 (270 nM), read-out: Percentage inhibition, Adrenergic α2A): 14%; inhibition at 0.3 µM ([1]; 0.3 μM compound, nor-epinephrine at EC80 (270 nM), read-out: Percentage inhibition, Adrenergic α2A): 18%; inhibition at 0.01 µM [2, 4]: 37%; inhibition at 0.03 µM ([2]; 30 nM compound, nor-epinephrine at EC80 (50 nM), read-out: Percentage inhibition, Adrenergic α2B): 94%; inhibition at 0.1 µM ([2]; 0.1 μM compound, nor-epinephrine at EC80 (50 nM), read-out: Percentage inhibition, Adrenergic α2B): 103%; inhibition at 0.0032 µM ([3]; 3.2 nM compound, concentration series, read-out: Percentage inhibition of ligand binding, Adrenergic α1B, 3.2 nM): 14%; inhibition at 0.01 µM ([3]; 10 nM compound, concentration series, read-out: Percentage inhibition of ligand binding, Adrenergic α1B, 10 nM): 17%; inhibition at 0.03 µM ([3]; 0.03 μM compound, concentration series, read-out: Percentage inhibition of ligand binding, Adrenergic α1B, 0.03 μM): 14%; inhibition at 0.32 µM ([3]; 0.32 μM compound, concentration series, read-out: Percentage inhibition of ligand binding, Adrenergic α1B, 0.32 μM): 74%; inhibition at 1 µM ([3]; 1 μM compound, concentration series, read-out: Percentage inhibition of ligand binding, Adrenergic α1B, 1 μM): 87%; inhibition at 3.2 µM ([3]; 3.2 μM compound, concentration series, read-out: Percentage inhibition of ligand binding, Adrenergic α1B, 3.2 μM): 96%; inhibition at 10 µM ([3]; 10 μM compound, concentration series, read-out: Percentage inhibition of ligand binding, Adrenergic α1B, 10 μM): 99%
1020 nM	16 nM	–	90%	11.4 nM	75%	–	CC(O)(Cn1c2c(c3cc(Cl)cc(F)c31)C1CCCN1CC2)c1ccncc1 (single isomer, unassigned) [52a]	–
